Experimental data as given in US11249071B2, “Reactivation of x chromosome genes” (CALIFORNIA INSTITUTE OF TECHNOLOGY, priority 2015, dated 2022).
Entries after “also recorded” stand apart in the source; their conditions may differ.

Test system: MLF cells having silenced X genes
Experiment: X-chromosome reactivation assay (single molecule RNA FISH) in MLF cells treated with inhibitors
Assay type: cell-based
Conditions: mouse MLF cells, HDAC3 inhibitor alone (Scriptaid 100 nM), 48 hours, FIGS. 7A-7B
Procedure: 5,000 Mouse MLF cells were plated on a poly-D-lysine (Sigma) and 0.2% gelatin (Sigma)-coated #1.5 coverslip placed into wells of a 24-well plate containing HEK media (DMEM, 10% Gemini Benchmark FBS, 1×L-glutamine, 1× sodium pyruvate, 1×NEAA, 1× Pen/Strep; Life Technologies unless otherwise indicated). After 16 hours, inhibitors were added into the media and incubated the cells for 48 hours. The inhibitors and the concentration used were: 5-Azacytidine (6 μM; Sigma, A2385), 5-Aza-2′-deoxycytidine ([…]; Sigma, A3656), RG 108 (200 μM; Abcam, ab141013), Trichostatin A (5 μM; Sigma, T8552), and Scriptaid (100 nM; Sigma, S7817).
Coverslips from siRNA transfection or inhibitor treatment were fixed in Histochoice (Sigma) for 10 min, washed thoroughly in PBS, and dehydrated in ethanol for storage until FISH staining. Single molecule RNA Fluorescence in situ hybridization (FISH) experiments were done using QuantiGene ViewRNA ISH Cell Assay (Affymetrix) and QuantiGene ViewRNA ISH Cell 740 Module (Affymetrix) according to manufacturer's protocol. […]
Cells were stained for target mRNAs and siRNA-targeted mRNA by FISH and imaged. Images were then analyzed using Matlab R2013b (described below). […] Within these cells, the copy number of target mRNAs were quantified using a peak finding method (described below) and compared across conditions. The mRNA levels were quantified for 50 individual cells. […]

## O=C(CCCCCN1C(=O)c2cccc3cccc(c23)C1=O)NO [Scriptaid]
  expression / reactivation of the Xist-dependent silenced Gpc4 gene, measured by levels of Gpc4 mRNA: resulting in expression of Gpc4; also recorded: resulting in the reactivation of the Xist-dependent silent Gpc4 gene
